In paper PMC8406298, “Discovery of Fungus-Specific Targets and Inhibitors Using Chemical Phenotyping of Pathogenic Spore Germination” (mBio, 2021):

Legend:
[1] = tested on: normal human dermal fibroblasts (NHDF) cells; assay: Fibroblast cytotoxicity (CellTiter-Glo); format: cell-based; conditions: 10 µM
Procedure: PrimaPure normal human dermal fibroblasts (NHDF) cells (Genlatis PH10605A) were cultured and passaged in fibroblast growth medium (Genlatis PM116500) according to the manufacturer’s protocol. NHDF cells (1 × 10^3 per well) were plated in a 384-well plate in cell culture medium. The cells were incubated with each compound of interest at 10 μM concentration for 72 h at 37°C and 5% CO2. Following treatment, CellTiter-Glo (Promega) reagent was used to assay ATP-dependent luminescence and thus provide a measure of cell viability. […] For cytotoxicity dose-response curves (Fig. 4C and Fig. 5C), compounds were titrated from 80 μM to 0.5 μM in duplicates.

[2] = tested on: Cryptococcus yeast (CHY3833 and CHY3836); assay: Yeast replication secondary screen (OD600); format: cell-based, Cryptococcus neoformans serotype D (deneoformans); conditions: 10 μM, 12 h at 30°C
Procedure: (ii) Yeast replication. CHY3833 and CHY3836 were each grown in YPD liquid overnight at 30°C to saturation and then resuspended in 0.5× YPD at an OD600 of 0.005. Strains were aliquoted into 384-well plates with inhibitors and grown for 12 h at 30°C at […] before OD600 readings were taken. Compounds that caused a >10% decrease in growth were considered yeast growth inhibitors.

Cc1ccc(N2C(=O)CC(Sc3ccccc3C(=O)N3CCOCC3)C2=O)cc1 (stereo not drawn) [compound 2951953]
Cytotoxicity: Relative Cell Viability (% of Negative Control) [1]: 94.9 % of Negative Control | Yeast Inhibition: % Inhibition [2]: 52.3%

O=S(=O)(NCC#CCOc1cccc(C(F)(F)F)c1)c1cccs1 [compound 71803055]
Cytotoxicity: Relative Cell Viability (% of Negative Control) [1]: 63.8 % of Negative Control | Yeast Inhibition: % Inhibition [2]: 7.0%

C/C=C/c1ccc(OCCn2cnc3ccccc32)c(OC)c1 [compound 5769972]
Cytotoxicity: Relative Cell Viability (% of Negative Control) [1]: 97.3 % of Negative Control | Yeast Inhibition: % Inhibition [2]: 79.1%

FC(F)(F)c1cccc(N2CCN(c3ncnc4sccc34)CC2)c1 [compound 2497352]
Cytotoxicity: Relative Cell Viability (% of Negative Control) [1]: 96.2 % of Negative Control | Yeast Inhibition: % Inhibition [2]: 92.5%

COc1ccc(Nc2nc3ccc(OC)cc3s2)cc1 [compound 7086348]
Cytotoxicity: Relative Cell Viability (% of Negative Control) [1]: 91.3 % of Negative Control | Yeast Inhibition: % Inhibition [2]: 31.0%

Oc1ccc(-c2ccccc2)cc1Br [compound 27297]
Cytotoxicity: Relative Cell Viability (% of Negative Control) [1]: 4.7 % of Negative Control | Yeast Inhibition: % Inhibition [2]: 101.8%

CC(C)(c1ccc(O)cc1)c1ccc(Cl)cc1 [compound 1992009]
Cytotoxicity: Relative Cell Viability (% of Negative Control) [1]: 2.1 % of Negative Control | Yeast Inhibition: % Inhibition [2]: 96.6%

Cc1cc(-c2nnc(NC(=O)c3ccc(C(=O)c4ccccc4)cc3)o2)nn1C [compound 25283140]
Cytotoxicity: Relative Cell Viability (% of Negative Control) [1]: 79.9 % of Negative Control | Yeast Inhibition: % Inhibition [2]: -15.6%

Oc1ccc2cc(Br)ccc2c1 [compound 27144]
Cytotoxicity: Relative Cell Viability (% of Negative Control) [1]: 31.7 % of Negative Control | Yeast Inhibition: % Inhibition [2]: 100.0%

O=C(COc1ccccc1F)N1CCC(Oc2ncccc2Br)CC1 [compound 71799471]
Cytotoxicity: Relative Cell Viability (% of Negative Control) [1]: 101.4 % of Negative Control | Yeast Inhibition: % Inhibition [2]: 2.6%

O=C1NC(=S)S/C1=C\c1ccccc1F [compound 1204290]
Cytotoxicity: Relative Cell Viability (% of Negative Control) [1]: 92.9 % of Negative Control | Yeast Inhibition: % Inhibition [2]: 71.4%

O=C(/C=C/c1cccc(F)c1)c1ccc[nH]1 [compound 7185492]
Cytotoxicity: Relative Cell Viability (% of Negative Control) [1]: 40.0 % of Negative Control | Yeast Inhibition: % Inhibition [2]: 99.0%

Nc1nc(Cl)cc(Nc2cccc(C(F)(F)F)c2)n1 [compound 42589452]
Cytotoxicity: Relative Cell Viability (% of Negative Control) [1]: 51.8 % of Negative Control | Yeast Inhibition: % Inhibition [2]: 100.9%

CC1CCN(C(=O)COc2ccc(-c3ccccc3)cc2)CC1 [compound 717711]
Cytotoxicity: Relative Cell Viability (% of Negative Control) [1]: 90.0 % of Negative Control | Yeast Inhibition: % Inhibition [2]: 28.9%

Cc1cccc(CC(=O)Nc2cc(C)ns2)c1 [compound 49722107]
Cytotoxicity: Relative Cell Viability (% of Negative Control) [1]: 98.5 % of Negative Control | Yeast Inhibition: % Inhibition [2]: 32.6%

c1ccc(CNc2ncnc3scc(-c4cccs4)c23)nc1 [compound 944383]
Cytotoxicity: Relative Cell Viability (% of Negative Control) [1]: 92.9 % of Negative Control | Yeast Inhibition: % Inhibition [2]: 53.4%

CCCC(CCC)C(=O)N1CCN(c2ccc(-c3cccnc3)nn2)CC1 [compound 25283686]
Cytotoxicity: Relative Cell Viability (% of Negative Control) [1]: 103.7 % of Negative Control | Yeast Inhibition: % Inhibition [2]: 2.8%

O=C(N=C1C(Cl)=C(Cl)C(=O)c2ccccc21)c1ccc(Cl)cc1 [compound 4111118]
Cytotoxicity: Relative Cell Viability (% of Negative Control) [1]: 7.1 % of Negative Control | Yeast Inhibition: % Inhibition [2]: 100.7%

COC(=O)c1c(N)sc(C)c1-c1ccc(F)cc1 [compound 874714]
Cytotoxicity: Relative Cell Viability (% of Negative Control) [1]: 75.9 % of Negative Control | Yeast Inhibition: % Inhibition [2]: 87.6%

CC(C)C(=O)Nc1nnc(SCc2cccc(F)c2)s1 [compound 4086498]
Cytotoxicity: Relative Cell Viability (% of Negative Control) [1]: 106.8 % of Negative Control | Yeast Inhibition: % Inhibition [2]: 20.2%

CCOC(=O)c1ccc(NC(=O)CC2Sc3ncnn3C2=O)cc1 (stereo not drawn) [compound 2954695]
Cytotoxicity: Relative Cell Viability (% of Negative Control) [1]: 99.4 % of Negative Control | Yeast Inhibition: % Inhibition [2]: 101.7%

Cc1cc(C(=O)NCC2Cc3ccccc3CO2)c(C)o1 (stereo not drawn) [compound 91626508]
Cytotoxicity: Relative Cell Viability (% of Negative Control) [1]: 98.3 % of Negative Control | Yeast Inhibition: % Inhibition [2]: 53.9%

O=S1(=O)CCC(NC(=S)SCc2ccccc2)C1 (stereo not drawn) [compound 2831154]
Cytotoxicity: Relative Cell Viability (% of Negative Control) [1]: 24.3 % of Negative Control | Yeast Inhibition: % Inhibition [2]: 48.2%

O=C(COc1coc(CN2CCc3ccccc32)cc1=O)OCc1ccccc1 [compound 7178481]
Cytotoxicity: Relative Cell Viability (% of Negative Control) [1]: 88.3 % of Negative Control | Yeast Inhibition: % Inhibition [2]: 15.8%

O=C(C1CCC1)N1CCCCC(c2ccc(Cl)cc2)C1 (stereo not drawn) [compound 76150259]
Cytotoxicity: Relative Cell Viability (% of Negative Control) [1]: 108.6 % of Negative Control | Yeast Inhibition: % Inhibition [2]: -2.1%

O=C(Nc1ccc2[nH]c3c(c2c1)CCCC3)c1ccco1 [compound 852322]
Cytotoxicity: Relative Cell Viability (% of Negative Control) [1]: 77.3 % of Negative Control | Yeast Inhibition: % Inhibition [2]: 65.7%

O=C(Nc1cnc(Oc2ccccc2)nc1)c1cccc(Cl)c1 [compound 71799766]
Cytotoxicity: Relative Cell Viability (% of Negative Control) [1]: 99.9 % of Negative Control | Yeast Inhibition: % Inhibition [2]: 7.9%

COC(=O)c1sc(S(=O)(=O)Nc2cccc(C(F)(F)F)c2)c(C(=O)OC)c1C [compound 1190482]
Cytotoxicity: Relative Cell Viability (% of Negative Control) [1]: 90.9 % of Negative Control | Yeast Inhibition: % Inhibition [2]: 2.5%

Cl.Fc1ccc(Nc2nc(-c3ccoc3)cs2)cc1F [compound 72720194]
Cytotoxicity: Relative Cell Viability (% of Negative Control) [1]: 70.6 % of Negative Control | Yeast Inhibition: % Inhibition [2]: 29.6%

O=C(/C=C/c1ccco1)N1CCCc2ccccc21 [compound 768672]
Cytotoxicity: Relative Cell Viability (% of Negative Control) [1]: 109.0 % of Negative Control | Yeast Inhibition: % Inhibition [2]: 37.4%

CCCCNC(=O)COc1c(C)cc(Br)cc1C [compound 1570496]
Cytotoxicity: Relative Cell Viability (% of Negative Control) [1]: 84.5 % of Negative Control | Yeast Inhibition: % Inhibition [2]: 47.1%

Cc1ccc(Nc2cc(Cl)nc(N)n2)cc1Cl [compound 243059]
Cytotoxicity: Relative Cell Viability (% of Negative Control) [1]: 46.1 % of Negative Control | Yeast Inhibition: % Inhibition [2]: 98.9%

Cc1nc(NC2CCCCC2)c2ccsc2n1 [compound 2239015]
Cytotoxicity: Relative Cell Viability (% of Negative Control) [1]: 75.4 % of Negative Control | Yeast Inhibition: % Inhibition [2]: 45.4%

Nc1nc(COc2ccc3ccccc3c2)cs1 [compound 973573]
Cytotoxicity: Relative Cell Viability (% of Negative Control) [1]: 108.1 % of Negative Control | Yeast Inhibition: % Inhibition [2]: 75.7%

O=C(Cn1c(=O)n(Cc2ccncc2)c(=O)c2ncccc21)Nc1ccc(F)c(Cl)c1 [compound 16951979]
Cytotoxicity: Relative Cell Viability (% of Negative Control) [1]: 102.8 % of Negative Control | Yeast Inhibition: % Inhibition [2]: 27.1%

O=C(c1cc2ccccc2s1)N1CCC(c2ccsc2)CC1 [compound 91624614]
Cytotoxicity: Relative Cell Viability (% of Negative Control) [1]: 96.6 % of Negative Control | Yeast Inhibition: % Inhibition [2]: -0.5%

Cc1ccc(COC(=O)c2ccc(C3Nc4ccccc4S(=O)(=O)N3)cc2)cc1 (stereo not drawn) [compound 44117349]
Cytotoxicity: Relative Cell Viability (% of Negative Control) [1]: 106.4 % of Negative Control | Yeast Inhibition: % Inhibition [2]: 15.4%

Oc1ccccc1-c1cc2ccccc2[nH]1 [compound 700009]
Cytotoxicity: Relative Cell Viability (% of Negative Control) [1]: 96.3 % of Negative Control | Yeast Inhibition: % Inhibition [2]: 82.2%

Fc1ccc(Nc2ccnc3ccc(Cl)cc23)c(F)c1 [compound 17016619]
Cytotoxicity: Relative Cell Viability (% of Negative Control) [1]: 67.9 % of Negative Control | Yeast Inhibition: % Inhibition [2]: 34.0%

CCC(OCC(O)CN1CCC(Cc2ccccc2)CC1)c1ccccc1 (stereo not drawn) [compound 4471873]
Cytotoxicity: Relative Cell Viability (% of Negative Control) [1]: 78.8 % of Negative Control | Yeast Inhibition: % Inhibition [2]: 82.2%

O=C(NC(=S)NCc1ccccc1)c1ccccc1 [compound 700976]
Cytotoxicity: Relative Cell Viability (% of Negative Control) [1]: 97.5 % of Negative Control | Yeast Inhibition: % Inhibition [2]: 78.1%

CC(=O)c1ccc(OCCOc2ccc(C#N)cc2)cc1 [compound 1713451]
Cytotoxicity: Relative Cell Viability (% of Negative Control) [1]: 106.4 % of Negative Control | Yeast Inhibition: % Inhibition [2]: 41.1%

c1nc(N2CCCCCC2)c2ccsc2n1 [compound 2238990]
Cytotoxicity: Relative Cell Viability (% of Negative Control) [1]: 79.6 % of Negative Control | Yeast Inhibition: % Inhibition [2]: 57.0%

Cc1cccc2sc(OC3CN(C(=O)Cc4ccc(F)cc4)C3)nc12 [compound 71796286]
Cytotoxicity: Relative Cell Viability (% of Negative Control) [1]: 99.2 % of Negative Control | Yeast Inhibition: % Inhibition [2]: 3.1%

Nc1c(-c2ccccc2)sc2nc(-c3ccccc3)cc[n+]12 [compound 4458495]
Cytotoxicity: Relative Cell Viability (% of Negative Control) [1]: 52.5 % of Negative Control | Yeast Inhibition: % Inhibition [2]: 87.8%

O=Cc1sc(=O)n(Cc2ccccc2)c1Cl [compound 820752]
Cytotoxicity: Relative Cell Viability (% of Negative Control) [1]: 115.4 % of Negative Control | Yeast Inhibition: % Inhibition [2]: 101.8%

CCCCCCCNS(=O)(=O)c1ccc(OCC)cc1 [compound 4102712]
Cytotoxicity: Relative Cell Viability (% of Negative Control) [1]: 43.9 % of Negative Control | Yeast Inhibition: % Inhibition [2]: 46.8%

Cc1ccccc1N=c1scc(-c2ccc(F)cc2)n1CCO [compound 16955786]
Cytotoxicity: Relative Cell Viability (% of Negative Control) [1]: 85.9 % of Negative Control | Yeast Inhibition: % Inhibition [2]: 21.9%

COc1ccc(CCNC(=O)c2c(O)nc3ccccn3c2=O)cc1OC [compound 16010290]
Cytotoxicity: Relative Cell Viability (% of Negative Control) [1]: 103.5 % of Negative Control | Yeast Inhibition: % Inhibition [2]: -0.7%

Nc1nc(-c2ccccn2)cs1 [compound 1092459]
Yeast Inhibition: % Inhibition [2]: 100.0%
